Activity calls are given as the source filed them. The calls are words filed in the database; no cut-off is given here.
Tests used:
[1] = Toxicity in female BALB/c mouse assessed as histopathological changes in liver at 30 mg/kg, ip measured for 7 days by H and E staining based analysis; format: organism-based; settings: in vivo, 168 h, time 7 day
[2] = tested on: HCC827; test: Induction of apoptosis in human HCC827 cells assessed as early apoptotic cells at 1 uM measured after 48 hrs by annexin V and PI staining based flow cytometry analysis (reference value: 1.80%); format: functional
[3] = tested on: HCC827; test: Downregulation of SDHB protein level in human HCC827 cells at 0.25 to 0.5 uM measured after 12 hrs; format: functional, cell-based; settings: dose 0.25-0.5 µM
[4] = tested on: HCC827; test: Induction of ROS generation in human HCC827 cells at 1 uM incubated for 4 hrs in presence of NAC by DCFH-DA staining based by absorbance based laser confocal microscopic analysis; format: functional, cell-based
[5] = tested on: HCC827; test: Induction of apoptosis in human HCC827 cells assessed as viable cells at 1 uM measured after 48 hrs by annexin V and PI staining based flow cytometry analysis (reference value: 95.10%); format: functional; settings: read-out: Activity
[6] = tested on: HCC827; test: Downregulation of VDAC1 expression level in human HCC827 cells 0.5 uM by Western blot analysis; format: functional, cell-based; settings: time 3-24 hrs
[7] = tested on: HCC827; test: Induction of cell cycle arrest in human HCC827 cells assessed as accumulation of cells at S phase at 0.1 uM incubated for 24 hrs by PI staining based flow cytometry analysis (reference value: 26.41%); format: functional
[8] = tested on: Mitochondrial membrane; test: Induction of mitochondrial membrane depolarization in human NCI-H1650 cells assessed as increase in JC-1 monomer ratio at 0.25 to 0.5 uM incubated for 4 hrs by JC-1 staining based confocal microscopy analysis; format: cell membranes; settings: dose 0.25-0.5 µM
[9] = tested on: HCC827; test: Induction of mitochondrial dysfunction in human HCC827 cells assessed as cristae reduction by TEM analysis; format: functional, cell-based
[10] = tested on: HEK-293T; test: Downregulation of […] expression level in human HEK293T cells harbouring PINK knockout at 0.25 to 0.5 uM; format: functional, cell-based; settings: dose 0.25-0.5 µM
[11] = tested on: HCC827; test: Induction of ROS generation in human HCC827 cells assessed as increase in superoxide anion level by measuring increase in red fluorescence intensity at 1 uM incubated for 4 hrs by laser scanning confocal fluorescence microscopic analysis; format: functional, cell-based
[12] = tested on: HCC827; test: Induction of apoptosis in human HCC827 cells assessed as early apoptotic cells at 1 uM measured after 24 hrs by annexin V and PI staining based flow cytometry analysis (reference value: 1.80%); format: functional
[13] = tested on: HCC827; test: Induction of apoptosis in human HCC827 cells assessed as viable cells at 0.5 uM measured after 48 hrs by annexin V and PI staining based flow cytometry analysis (reference value: 96.74%); format: functional; settings: read-out: Activity
[14] = tested on: HCC827; test: Antitumor activity against human HCC827 cells xenografted in female nude mouse model assessed as reduction in tumor weight at 5 to 10 mg/kg, ip measured every two days for 14 days; format: functional, organism-based; settings: dose 5-10 mg/kg, time 14.0 day
[15] = tested on: HCC827; test: Antiproliferative activity against human HCC827 cells assessed as cell viability at 1 uM measured after 48 hrs in presence of deferoxamine by MTT assay relative to control; format: functional; settings: read-out: Activity
[16] = tested on: HCC827; test: Induction of apoptosis in human HCC827 cells assessed as necrotic cells at 1 uM measured after 24 hrs by annexin V and PI staining based flow cytometry analysis (Rvb =0.84%); format: functional
[17] = tested on: HCC827; test: Induction of mitochondrial dysfunction in human HCC827 cells assessed as suppression of ATP production incubated for 4 hrs by Seahorse XF96 extracellular flux analyzer; format: functional, cell-based; settings: dose 0.125-5 µM
[18] = tested on: Mitochondrial membrane; test: Induction of mitochondrial membrane depolarization in HEK293T cells assessed as JC-1 monomer ratio by measuring increase green fluorescence at 0.25 uM incubated for 4 hrs by JC-1 staining based confocal microscopy analysis; format: cell membranes; settings: Homo sapiens
[19] = tested on: HCC827; test: Upregulation of parkin phosphorylation level in human HCC827 cells at 0.25 to 0.5 uM measured after 24 hrs; format: functional, cell-based; settings: dose 0.25-0.5 µM
[20] = tested on: HCC827; test: Induction of mitochondrial dysfunction in human HCC827 cells assessed as suppression of maximal oxygen consumption rate incubated for 4 hrs by Seahorse XF96 extracellular flux analyzer; format: functional, cell-based; settings: dose 0.125-5 µM
[21] = tested on: HCC827; test: Downregulation of TIMM23 expression level in human HCC827 cells at 0.5 uM by Western blot analysis; format: functional, cell-based; settings: time 3-24 hrs
[22] = Toxicity in female BALB/c mouse assessed as histopathological changes in lung at 30 mg/kg, ip measured for 7 days by H and E staining based analysis; format: organism-based; settings: in vivo, 168 h, time 7 day
[23] = Drug accumulation in mitochondria of human HCC827 cells at 10 uM incubated for 10 mins in presence of CCCP by RP-HPLC-UV analysis; format: ADME; settings: hcc827, 10 min
[24] = tested on: HCC827; test: Downregulation of TOMM20 expression level in human HCC827 cells incubated for 24 hrs by Western blot analysis; format: functional, cell-based; settings: dose 0.25-0.5 µM
[25] = Toxicity in female BALB/c mouse assessed as histopathological changes in kidney at 30 mg/kg, ip measured for 7 days by H and E staining based analysis; format: organism-based; settings: in vivo, 168 h, time 7 day
[26] = tested on: HCC827; test: Induction of apoptosis in human HCC827 cells assessed as necrotic cells at 1 uM measured after 48 hrs by annexin V and PI staining based flow cytometry analysis (Rvb =0.84%); format: functional
[27] = tested on: HCC827; test: Downregulation of SDHB expression in human HCC827 cells at 0.25 to 0.5 uM; format: functional, cell-based; settings: dose 0.25-0.5 µM
[28] = tested on: HCT-116; test: Antiproliferative activity against human HCT-116 cells assessed as inhibition of cell growth measured after 72 hrs by MTT assay; format: functional, cell-based; settings: HCT-116, 72 h
[29] = tested on: HCC827; test: Antimetastatic activity against human HCC827 cells xenografted in female nude mouse model assessed as decrease in vimentin level at 5 to 10 mg/kg, ip by Western blot analysis; format: functional, organism-based; settings: dose 5-10 mg/kg
[30] = tested on: Mitochondrial membrane; test: Induction of mitochondrial membrane depolarization in human HCC827 cells assessed as decrease in red fluorescence at 0.125 to 0.5 uM incubated for 4 hrs by JC-1 staining based confocal microscopy analysis; format: cell membranes; settings: dose 0.125-0.5 µM
[31] = tested on: MDA-MB-231; test: Antiproliferative activity against human MDA-MB-231 cells assessed as inhibition of cell growth measured after 72 hrs by MTT assay; format: functional, cell-based; settings: MDA-MB-231, 72 h
[32] = tested on: HCC827; test: Antiproliferative activity against human HCC827 cells assessed as cell viability measured after 48 hrs by MTT assay; format: functional, cell-based; settings: HCC827, 48 h
[33] = tested on: HCC827; test: Induction of apoptosis in human HCC827 cells assessed as necrotic cells at 1 uM measured after 36 hrs by annexin V and PI staining based flow cytometry analysis (Rvb =0.84%); format: functional
[34] = tested on: HCC827; test: Downregulation of VDAC1 expression level in human HCC827 cells 0.25 to 0.5 uM incubated for 24 hrs in presence of BFA by Western blot analysis; format: functional, cell-based; settings: dose 0.25-0.5 µM
[35] = tested on: NCI-H1975; test: Antiproliferative activity against human NCI-H1975 cells assessed as inhibition of cell growth measured after 72 hrs by MTT assay; format: functional, cell-based; settings: NCI-H1975, 72 h
[36] = tested on: HCC827; test: Induction of ferroptosis in human HCC827 cells assessed as decrease in xCT expression incubated for 24 hrs; format: functional, cell-based; settings: dose 0.25-0.5 µM
[37] = tested on: HCC827; test: Induction of apoptosis in human HCC827 cells assessed as viable cells at 1 uM measured after 24 hrs by annexin V and PI staining based flow cytometry analysis (reference value: 95.10%); format: functional; settings: read-out: Activity

With `Cc1ccc([P+](CCCCCCCCCCO)(c2ccc(C)cc2)c2ccc(C)cc2)cc1.[Br-]` the Activity [1] was “Non-toxic”, the Activity [2] was 5.33% and the Activity [3] was “Active”. For the same compound, the Activity [4] was “inactive”, the viability at 1 µM [5] was 91.9% and the Activity [6] was “Time-dependent-effect”. For the same compound, the Activity [7] was 24.03%, the Activity [8] was “Active” and the Activity [9] was “Active”. For the same compound, the Activity [10] was “inactive”, the Activity [11] was “Active” and the Activity [12] was 1.17%. The viability at 0.5 µM [13] was 88.5%, the Activity [14] was “Active” and the viability at 1 µM [15] was 51.4%. For the same compound, the Activity [16] was 1.47%, the Activity [17] was “Dose-dependent-effect” and the Activity [18] was “inactive”. For the same compound, the Activity [19] was “Active”, the Activity [20] was “Dose-dependent-effect” and the Activity [21] was “Time-dependent-effect”. For the same compound, the Activity [22] was “Non-toxic”, the Drug uptake [23] was “Not_active” and the Activity [24] was “Dose-dependent-effect”. The Activity [25] was “Non-toxic”, the Activity [26] was 2.02% and the Activity [27] was “Active”. The IC50 [28] was 620 nM, the Activity [29] was “Active” and the Activity [30] was “Active”. It also gave an IC50 [31] of 100 nM, an IC50 [32] of 120 nM and an Activity [33] of 0.96%. The Activity [34] was “inactive”, the IC50 [35] was 200 nM and the Activity [36] was “Dose-dependent-effect”. It also gave a viability at 1 µM [37] of 93.6%.

— ChEMBL document CHEMBL6182916, “Unexpected Discovery of a Novel Triphenylphosphonium Alkylalcohol That Triggers Cancer Cell Death via Mitophagy and Ferroptosis” (J Med Chem, 2025)
